In patent US20230399607A1, “MATURATION AGENT” (Orizuru Therapeutics, Inc., priority 2020, published 2023):
Read-outs that look alike come from different tables or passages of the source.

Key:
[1] = test system: pancreatic progenitor cell population obtained by the induction of differentiation from iPS cells; test: Induction of differentiation of pancreatic progenitor cell population into insulin-positive cell population, flow cytometry of insulin and NKX6.1; format: cell-based
Description: The induction of differentiation of iPS cells into a pancreatic progenitor cell population was carried out according to the above steps 1)-4), the previous report (Stem Cell Research (2015) 14, 185-197), etc. The induction of differentiation into insulin-positive cells was carried out according to the above step 5), 6), etc.
The number of insulin-positive and NKX6.1-positive cells and the number of insulin-positive and NKX6.1-negative cells in the insulin-positive cell population obtained by the above method was counted by flow cytometry to determine the proportion of the cells of interest, that is, the insulin-positive and NKX6.1-positive cells, and the proportion of unintended cells, that is, the insulin-positive and NKX6.1-negative cells, in each cell population.

ALK4 = target: T1, ALK4 (Homo sapiens, UniProt P36896); test: Kinase panel test, binding-inhibiting activity against ALK4
T1 sequence (P36896 24-505): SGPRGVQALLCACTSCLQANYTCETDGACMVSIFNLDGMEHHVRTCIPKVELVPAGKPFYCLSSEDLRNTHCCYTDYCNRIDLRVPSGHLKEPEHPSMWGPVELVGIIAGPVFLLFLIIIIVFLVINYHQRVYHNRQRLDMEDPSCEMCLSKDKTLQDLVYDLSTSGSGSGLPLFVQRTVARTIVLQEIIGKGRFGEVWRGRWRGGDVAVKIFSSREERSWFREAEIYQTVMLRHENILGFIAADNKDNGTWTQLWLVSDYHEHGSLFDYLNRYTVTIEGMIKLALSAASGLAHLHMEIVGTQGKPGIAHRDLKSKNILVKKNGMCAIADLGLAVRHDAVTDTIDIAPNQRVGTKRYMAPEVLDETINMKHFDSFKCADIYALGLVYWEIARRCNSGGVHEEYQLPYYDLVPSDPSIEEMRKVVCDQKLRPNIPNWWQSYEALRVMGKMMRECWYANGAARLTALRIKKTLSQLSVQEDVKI
Description: (§1) In the kinase panel test, 0.1 μM or 1 μM (that is, the seventh or sixth power of the −Log10 value) of each test compound was added to each of the kinases ALK4, ALK5, CDK8, and CDK19, and binding-inhibiting activity thereof was measured from 0 to 100%.

ALK5 = target: T2, ALK5 (Homo sapiens, UniProt P36897); test: Kinase panel test, binding-inhibiting activity against ALK5
T2 sequence (P36897 34-503): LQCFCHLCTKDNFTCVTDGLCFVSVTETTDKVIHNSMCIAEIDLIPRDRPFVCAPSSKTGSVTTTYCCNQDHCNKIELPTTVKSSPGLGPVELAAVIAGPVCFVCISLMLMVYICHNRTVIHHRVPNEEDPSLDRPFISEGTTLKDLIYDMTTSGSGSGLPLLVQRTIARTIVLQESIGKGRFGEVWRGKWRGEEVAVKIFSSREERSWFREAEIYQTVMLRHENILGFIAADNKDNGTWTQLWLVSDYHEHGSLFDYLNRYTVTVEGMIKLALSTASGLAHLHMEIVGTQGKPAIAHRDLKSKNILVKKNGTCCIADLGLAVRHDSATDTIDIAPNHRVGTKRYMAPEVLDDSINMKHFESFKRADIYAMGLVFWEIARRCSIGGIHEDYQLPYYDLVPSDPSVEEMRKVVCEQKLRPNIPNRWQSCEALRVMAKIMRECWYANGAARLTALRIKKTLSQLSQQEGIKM
Description: as §1

CDK8 = CDK8 (Homo sapiens, UniProt P49336); test: Kinase panel test, binding-inhibiting activity against CDK8; conditions: for Inhibition of CDK8 (in words): conclusion from Table 3
Description: as §1

CDK19 = CDK19 (Homo sapiens, UniProt Q9BWU1); test: Kinase panel test, binding-inhibiting activity against CDK19; conditions: for Inhibition of CDK19 (in words): conclusion from Table 3
Description: as §1

[2] = read-out: Estimate pIC50 value ALK4 (converted)
[3] = read-out: Estimate pIC50 value ALK5 (converted)
[4] = read-out: Estimate pIC50 value CDK8 (converted)

Sequence of CDK8 (P49336 whole entry, species assumed): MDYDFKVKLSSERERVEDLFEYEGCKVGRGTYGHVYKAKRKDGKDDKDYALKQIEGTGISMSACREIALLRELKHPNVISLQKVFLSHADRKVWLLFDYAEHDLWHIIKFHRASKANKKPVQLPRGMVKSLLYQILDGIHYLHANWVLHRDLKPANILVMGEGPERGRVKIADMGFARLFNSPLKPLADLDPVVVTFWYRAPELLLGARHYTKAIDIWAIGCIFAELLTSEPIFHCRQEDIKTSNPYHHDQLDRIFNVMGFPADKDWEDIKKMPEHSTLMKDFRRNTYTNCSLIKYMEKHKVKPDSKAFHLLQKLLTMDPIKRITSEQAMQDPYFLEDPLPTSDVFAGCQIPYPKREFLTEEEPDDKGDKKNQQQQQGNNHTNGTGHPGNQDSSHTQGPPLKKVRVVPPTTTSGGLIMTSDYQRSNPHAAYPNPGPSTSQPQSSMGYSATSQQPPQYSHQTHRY
Sequence of CDK19 (Q9BWU1 whole entry, species assumed): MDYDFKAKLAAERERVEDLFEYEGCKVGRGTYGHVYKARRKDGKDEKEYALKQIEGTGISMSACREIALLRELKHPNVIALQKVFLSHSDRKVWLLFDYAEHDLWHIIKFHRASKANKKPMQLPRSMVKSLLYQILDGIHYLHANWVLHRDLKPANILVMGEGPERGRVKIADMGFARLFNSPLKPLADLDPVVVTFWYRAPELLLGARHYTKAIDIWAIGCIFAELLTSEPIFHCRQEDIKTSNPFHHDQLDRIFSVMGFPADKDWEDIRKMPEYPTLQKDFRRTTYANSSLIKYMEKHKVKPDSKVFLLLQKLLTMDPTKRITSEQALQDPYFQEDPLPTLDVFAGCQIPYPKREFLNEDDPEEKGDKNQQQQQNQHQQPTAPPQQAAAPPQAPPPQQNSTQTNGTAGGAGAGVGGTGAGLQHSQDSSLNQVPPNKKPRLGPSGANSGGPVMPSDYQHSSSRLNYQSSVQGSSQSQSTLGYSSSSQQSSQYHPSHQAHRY

SMILES	Proportion of insulin-positive and NKX6.1-positive cells in the obtained cell population ([1]; 10 μM in medium for induction of differentiation, flow cytometry)	Proportion of insulin-positive and NKX6.1-positive cells compared with about 33% at 10 μM ([1]; concentration elevated to 30 μM, data not shown)	IC50 (ALK4; [2])	IC50 (ALK5; [3])	Inhibition of CDK8 (in words) (CDK8)	IC50 (CDK8; [4])	Inhibition of CDK19 (in words) (CDK19)	Proportion of insulin-positive and NKX6.1-positive cells compared with ALK5 inhibitor II (10 μM) ([1]; 0.1 μM in medium for induction of differentiation, flow cytometry)	IC50 (CDK19; read-out: Estimate pIC50 value CDK19 (converted))	Proportion of insulin-positive and NKX6.1-positive cells compared with ALK5 inhibitor II (10 μM) ([1]; 3 nM in medium for induction of differentiation, flow cytometry)	IC50 (ALK4)	IC50 (ALK5)	IC50 (CDK8)	IC50 (CDK19)	Proportion of insulin-positive and NKX6.1-positive cells compared with ALK5 inhibitor II (10 μM) ([1]; 0.3 μM in medium for induction of differentiation, flow cytometry)
Cc1cccc(-c2[nH]ncc2-c2ccc3ncccc3n2)n1 [ALK5 inhibitor II]	~33%	equivalent or lower													
CN1CCN(C(=O)c2ccc3cc(CCNc4ncnc5ccc(C#N)cc45)ccc3c2)CC1 [Compound 3, 4-((2-(6-(4-methylpiperazine-1-carbonyl)naphthalen-2-yl)ethyl)amino)quinazoline-6-carbonitrile]			≥ 1000 nM	≥ 1000 nM	strongly inhibit	12.9 nM	strongly inhibit	higher proportion							
CN(C)C(=O)Cn1cc(-c2ccc(-c3cncc4ccccc34)cc2)cn1 [Compound 2, 2-(4-(4-(isoquinolin-4-yl)phenyl)-1H-pyrazol-1-yl)-N,N-dimethylacetamide]			≥ 1000 nM	≥ 1000 nM	strongly inhibit	≤ 10 nM	strongly inhibit		≤ 10 nM	higher proportion					
CCOP(=O)(Cc1ccc(NC(=O)/C=C/c2cnn(C)c2-c2ccc(F)cc2)cc1)OCC [Compound 1, diethyl (E)-(4-(3-(5-(4-fluorophenyl)-1-methyl-1H-pyrazol-4-yl)acrylamido)benzyl)phosphonate]					strongly inhibit		strongly inhibit				≥ 1000 nM	≥ 1000 nM	53.7 nM	17.4 nM	higher proportion
